PubChem BioAssay AID1189 (EPA DSSTox, 2008)
The source made the active and inactive calls.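 How the source made its calls: active means a tumor-causing dose value with its tumor site reported for any sex and species group of a rodent or other animal cancer study; inconclusive means only studies judged inadequate by the national testing program; inactive means tested in at least one study, none positive.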 Peptide text beside a SMILES is read from it.

Assay: DSSTox (CPDBAS) Carcinogenic Potency Database Summary SingleCellCall Results
Conditions: animal chronic carcinogenicity bioassays, CPDB summary call
Procedure, shortened: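 Literature-derived summary: each substance receives an overall carcinogenic/non-carcinogenic category drawn from long-term bioassays in rats, mice, hamsters, dogs or primates, using the most positive sex-species experiment and minimal evidence criteria.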

SMILES | outcome
Cc1ccc(O)c(O)c1 | active; inactive
NCCCCCC(=O)O | inactive; active
FC(F)(Cl)Cl | inactive
O=S(=O)(Oc1ccc(Cl)cc1)c1ccc(Cl)cc1 | inactive
CC(=O)OC[C@]12C[C@H](OC(=O)CC(C)C)C(C)=C[C@H]1O[C@@H]1[C@H](O)[C@@H](OC(C)=O)[C@@]2(C)C12CO2 (stereo partly drawn) | active; inactive
O=C(O)COc1cc(Cl)c(Cl)cc1Cl | inactive
ClC(Cl)C(Cl)Cl | active
COC(=O)C1=C(C)NC(C)=C(C(=O)OCCc2ccc(N3CCN(C(c4ccccc4)c4ccccc4)CC3)cc2)C1c1cccc([N+](=O)[O-])c1 (stereo not drawn) | inactive; active
CN(C)N=O | active
[O-][Cl+]O | inactive; active
CC1CCC(C(C)C)C(O)C1 (stereo not drawn) | inactive
Cl/C=C/CCl | active
Clc1cccc(-c2ccc(Cl)c(Cl)c2Cl)c1Cl | active
CC(Cl)CCl (stereo not drawn) | active; inactive
O=c1[nH]c(=O)n(C2CCCO2)cc1F (stereo not drawn) | inactive
S=c1nc[nH]c2nc[nH]c12 | inactive; active
Oc1cccc(O)c1 | inactive
CC(C)(C)c1cc(O)ccc1O | inactive
COc1cc(N=Nc2ccccc2)ccc1N | active; inactive
CC(C)[N+](=O)[O-] | inactive; active
CC1=CC(=O)NS(=O)(=O)O1 | inactive
CC(C)Oc1ccccc1OC(=O)N(C)N=O | active
CC1CN(N=O)CC(C)O1 (stereo not drawn) | active
Nc1ccc(O)c(N)c1 | active
CN(C#N)N=O | active

SMILES | outcome
CCCCOC(=O)COc1ccc(Cl)cc1Cl | inactive
C=COC(C)=O | active
Clc1cccc(-c2cccc(Cl)c2)c1 | active
NCCNc1cccc2ccccc12 | inactive; active
Cc1ccccc1[N+](=O)[O-] | active
NNC=O | active
CCC1NC(=O)C2C(Cl)C(Cl)CN2C(=O)C(CO)NC(=O)CC(c2ccccc2)NC(=O)C(CO)NC1=O (stereo not drawn) | active; inactive
CCN(CC)c1ccc(N=Nc2cc[n+]([O-])cc2)cc1 | active
C1CCOC1 | active; inactive
NC(=S)NNC(N)=S | inactive
Nc1ccccc1C(=O)OC/C=C/c1ccccc1 | active
O=[N+]([O-])c1ccc(-c2nc(N3CCOCC3)c3ccccc3n2)s1 | active
Cc1ccccc1OCC(O)CNCCn1cc(C)c(=O)[nH]c1=O (stereo not drawn) | inactive
NC(N)=O | inactive
CCOC(=O)C(C)(C)Oc1ccc(Cl)cc1 | active
CC[C@H](C)[C@H]1O[C@]2(CC[C@@H]1C)C[C@@H]1C[C@@H](C/C=C(\C)[C@@H](O[C@H]3C[C@H](OC)[C@@H](O[C@H]4C[C@H](OC)[C@@H](O)[C@H](C)O4)[C@H](C)O3)[C@@H](C)/C=C/C=C3\CO[C@@H]4[C@H](O)C(C)=C[C@@H](C(=O)O1)[C@]34O)O2 | inactive
Cc1cc(-c2ccc(N)c(C)c2)ccc1N | active
FC(F)(Cl)C(F)(Cl)Cl | inactive; active
C[C@@H]1Cc2c(Cl)cc(C(=O)N[C@@H](Cc3ccccc3)C(=O)O)c(O)c2C(=O)O1 | active
Cc1ccc(S(=O)(=O)NC(=O)NN2CCCCCC2)cc1 | inactive
c1ccc2occc2c1 | active; inactive
NNC(N)=S | inactive
C=C1C[C@]23C[C@@]1(O)CC[C@H]2[C@@]12C=C[C@H](O)[C@@](C)(C(=O)O1)[C@H]2[C@@H]3C(=O)O | inactive
O=S1(=O)OCCO1 | inactive
Nc1ccc(Sc2ccc(N)cc2)cc1 | active

SMILES | outcome
[Cl-].[Cl-].[Hg+2] | active
C1CCNCC1 | inactive; active
Clc1ccc(C(c2ccc(Cl)cc2)C(Cl)Cl)cc1 | active
O=C1CN=C(c2ccccc2)c2cc(Cl)ccc2N1CC1CC1 | inactive
Cc1ccc(Cc2cnc(NCCSCc3ccc(CN(C)C)o3)[nH]c2=O)cn1 | active
C[C@@H]1CCC[C@H](C)N1CCCC(O)(c1ccccc1)c1ccccn1 (stereo partly drawn) | inactive; active
CNC[C@H](O)c1cccc(O)c1 | inactive
CC(C)OC(=O)Nc1cccc(Cl)c1 | inactive; active
CCN(N)C=O | active
NNC(=O)c1cccnc1 | active
CCNc1nc(Cl)nc(NC(C)(C)C#N)n1 | active
Nc1ccc(Cl)c(N)c1 | active
O=C(Nc1ccc([N+](=O)[O-])cc1Cl)c1cc(Cl)ccc1O | inactive
Oc1cc2c(cc1O)[C@H]1c3ccc(O)c(O)c3OC[C@@]1(O)C2 | active
CCCc1ccc2c(c1)OCO2 | active; inactive
CCN(CC(F)(F)F)N=O | active
COc1cc(OC)c2c3c(c(=O)oc2c1)CCC3 | inactive
CC1=NN(c2ccccc2)C(=O)C1 | inactive
Cc1cccc(N)c1 | active; inactive
OCc1ccccc1 | inactive
O=[N+]([O-])c1ccc(O)c([N+](=O)[O-])c1 | inactive
Clc1cc2c(cc1Cl)Oc1cc(Cl)c(Cl)cc1O2 | active; inactive
c1ccc(-c2ccccc2)cc1 | inactive; active
CCCCCl | inactive
Nc1nc(-c2ccc([N+](=O)[O-])cc2)cs1 | active

SMILES | outcome
N[C@@H](Cc1ccc(N(CCCl)CCCl)cc1)C(=O)O | active
N[C@@H](CCC(=O)NNc1ccc(C(=O)O)cc1)C(=O)O | active; inactive
Nc1ncn[nH]1 | active; inactive
ClC1(Cl)C2(Cl)C3(Cl)C4(Cl)C(Cl)(Cl)C5(Cl)C3(Cl)C1(Cl)C5(Cl)C24Cl (stereo not drawn) | active; inactive
O=S(=O)(O)c1ccc2c(N=Nc3ccc(S(=O)(=O)O)c4ccccc34)c(O)c(S(=O)(=O)O)cc2c1 | active
CC(C)Nc1nc(Cl)nc(NC(C)C)n1 | inactive
COC1=CC(=O)C[C@@H](C)[C@]12Oc1c(Cl)c(OC)cc(OC)c1C2=O | active
CC1=CC(=C(c2ccc(N)cc2)c2ccc(N)cc2)C=CC1=N | inactive
CC(=O)Nc1ccc(N=Nc2cc(C)ccc2O)cc1 | active; inactive
COC(=O)[C@H](Cc1ccccc1)NC(=O)[C@@H](N)CC(=O)O (H-Asp-Phe-OMe) | inactive
CC(C)(Oc1ccc(C2CCCc3ccccc32)cc1)C(=O)O (stereo not drawn) | active; inactive
Nc1ccc(N)c2c1C(=O)c1c(N)ccc(N)c1C2=O | active
CCC(O)OC(O)CC (stereo not drawn) | inactive
CC/C(=C(\c1ccccc1)c1ccc(OCCN(C)C)cc1)c1ccccc1 | active
CC(C)OC(=O)COc1ccc(Cl)cc1Cl | inactive
COc1ccccc1[N+](=O)[O-] | active
CC(C)OC(=O)Nc1ccccc1 | inactive; active
O=C1c2ccccc2C(=O)N1SC(Cl)(Cl)Cl | active
CC(=O)NNC(C)=O | inactive
c1ccccc1 | active
C=CC(=O)OCC | active
CC[C@H]1OC(=O)C[C@@H](O)[C@H](C)[C@@H](O[C@@H]2O[C@H](C)[C@@H](O[C@H]3C[C@@](C)(O)[C@@H](O)[C@H](C)O3)[C@H](N(C)C)[C@H]2O)[C@@H](CC=O)C[C@@H](C)C(=O)/C=C/C(C)=C/C1CO[C@@H]1O[C@H](C)[C@@H](O)[C@@H](OC)[C@H]1OC (stereo partly drawn) | inactive
CCCCCCCCCCN(C)N=O | active
CCNC(=O)N(CCO)N=O | active
C[C@]12CCC(=O)C=C1CC[C@@H]1[C@@H]2[C@@H](O)C[C@@]2(C)[C@H]1CC[C@]2(O)C(=O)CO | inactive

SMILES | outcome
COc1ccc([N+](=O)[O-])cc1N=Nc1c(O)c(C(=O)Nc2cccc([N+](=O)[O-])c2)cc2ccccc12 | inactive; active
CCCCOCCO | active
COc1cc2c(cc1N)oc1ccccc12 | active
CCn1c2ccccc2c2cc(N)ccc21 | active
C=C1C/C(=C/C)C(=O)O[C@@H]2CCN3CC=C(COC(=O)[C@@]1(O)CO)[C@H]23 | active; inactive
CCN(CC)C(=S)SSC(=S)N(CC)CC | inactive; active
Nc1c(Br)cc(Br)c2c1C(=O)c1ccccc1C2=O | active
CC1=C[C@H]2O[C@@H]3[C@H](O)C[C@@](C)(C34CO4)[C@@]2(CO)[C@H](O)C1=O (stereo partly drawn) | inactive; active
CC1=CC(C)(C)N(N=O)c2ccccc21 | active
O=S(=O)(O)c1c(N=Nc2c(O)ccc3ccccc23)ccc2ccccc12 | inactive; active
C=C1CC[C@H](O)C/C1=C/C=C1\CCC[C@]2(C)[C@@H]([C@H](C)/C=C/[C@H](C)C(C)C)CC[C@@H]12 | inactive
CN(C)CCN(Cc1ccco1)c1ccccn1 | inactive; active
OC[C@H]1O[C@H](O[C@]2(CCl)O[C@H](CCl)[C@@H](O)[C@@H]2O)[C@H](O)[C@@H](O)[C@H]1Cl | inactive
CCN(CC)C(=S)S | inactive; active
O=C(O)c1ccc(O)c(O)c1 | inactive
CNC(=O)O/N=C/C(C)(C)SC | inactive
Cc1cc(C)nc(NS(=O)(=O)c2ccc(N)cc2)n1 | active
CNc1ncnc2nc[nH]c12 | inactive
NCCc1ccc(O)c(O)c1 | inactive
CC(C)Cc1ccc(C(C)C(=O)O)cc1 (stereo not drawn) | inactive
CC(C)(CO)CCCCCCC(C)(C)CO | inactive
C[C@H]([C@H](O)CCC(C)(C)O)[C@H]1CC[C@@]2(O)C3=CC(=O)[C@@H]4C[C@@H](O)[C@@H](O)C[C@]4(C)[C@H]3CC[C@]12C | active; inactive
Cc1ccc(-c2cc(C(F)(F)F)nn2-c2ccc(S(N)(=O)=O)cc2)cc1 | inactive
